Laboratory results from paper PMC4448982, “LP-925219 maximizes urinary glucose excretion in mice by inhibiting both renal SGLT1 and SGLT2” (Pharmacology Research & Perspectives, 2015).

Experiments:
[1] = target: T1, human SGLT2 (Homo sapiens, UniProt P31639); assay: Compound washout study, cells expressing human SGLT2
T1 sequence (P31639 1-672): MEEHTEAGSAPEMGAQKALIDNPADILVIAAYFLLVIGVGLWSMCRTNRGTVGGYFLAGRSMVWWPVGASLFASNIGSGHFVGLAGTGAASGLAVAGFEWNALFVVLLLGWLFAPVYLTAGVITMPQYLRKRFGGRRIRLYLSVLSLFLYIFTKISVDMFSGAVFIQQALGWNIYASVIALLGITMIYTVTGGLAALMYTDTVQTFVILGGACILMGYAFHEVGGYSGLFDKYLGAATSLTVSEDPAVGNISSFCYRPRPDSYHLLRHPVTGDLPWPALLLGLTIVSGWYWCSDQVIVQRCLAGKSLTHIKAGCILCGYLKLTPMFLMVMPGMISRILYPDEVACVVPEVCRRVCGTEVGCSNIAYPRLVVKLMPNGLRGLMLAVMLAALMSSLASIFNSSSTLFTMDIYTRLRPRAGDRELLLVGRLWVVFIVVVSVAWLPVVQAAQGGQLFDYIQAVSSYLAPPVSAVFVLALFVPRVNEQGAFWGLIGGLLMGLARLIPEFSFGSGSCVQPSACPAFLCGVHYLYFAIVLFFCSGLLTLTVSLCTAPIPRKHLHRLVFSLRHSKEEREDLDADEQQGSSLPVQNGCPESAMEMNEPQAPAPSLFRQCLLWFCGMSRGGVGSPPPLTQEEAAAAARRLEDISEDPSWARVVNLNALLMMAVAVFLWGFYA
Source text: Cells expressing human SGLT2 were studied using the above protocol. […] Cells expressing human SGLT2 were studied using the above protocol.

[2] = target: dog SGLT2 (Canis lupus familiaris, UniProt Q5U9C9); assay: 14C-AMG uptake assay, cells expressing dog SGLT2; type: cell-based; conditions: mean ± SD
Source text: (§1) Methods for generating cell lines expressing mouse, rat, and dog SGLT1 and SGLT2 are published (Powell et al. [2013b], [2014]). Full-length coding sequence of human SGLT1 (NP_000334) and human SGLT2 (NP_003032.1) with an HA-tag at the N-terminus were cloned into the mammalian expression vector pIRESpuro2 (Clontech, Mountain View, CA). HEK293 cells (ATCC, Manassas, VA) were transfected with the pIRESpuro2 vector containing human SGLT1 or SGLT2 and bulk stable cell lines were selected in the presence of 0.5 μg/mL of puromycin.
(§2) Cell lines expressing SGLT1 or SGLT2 were plated into poly-D-lysine-coated 384-well plates, and culture overnight in cell growth medium. Cells were washed, and then incubated in uptake buffer ([…], […] KCl, […] CaCl2, […] MgCl2, […] HEPES/Tris, 1 mg/mL of bovine serum albumin, pH7.4) containing [^14C]α-methylglucopyranoside (^14C-AMG), a nonmetabolizable glucose analog specific for sodium-dependent glucose transporters (Wright and Turk [2004]). The inhibition of SGLT1 or SGLT2 was determined by measuring SGLT1/2-mediated ^14C-AMG uptake in the presence of increasing compound concentrations of LP-925219. […] Standard sigmoidal dose–response model curves were fitted, and the IC50 value was computed as the LP-925219 concentration that inhibited the ^14C-AMG uptake by 50% between baseline and maximum uptake.

[3] = target: T1, human SGLT2; assay: 14C-AMG uptake assay, HEK293 cells expressing human SGLT2; type: cell-based; set-up: expressed in transfected cells; conditions: mean ± SD
Source text: as §1, §2

[4] = target: T2, dog SGLT1 (Canis lupus familiaris, UniProt A0A8I3PYH5); assay: 14C-AMG uptake assay, cells expressing dog SGLT1; type: cell-based; conditions: mean ± SD
T2 sequence (A0A8I3PYH5 1-662): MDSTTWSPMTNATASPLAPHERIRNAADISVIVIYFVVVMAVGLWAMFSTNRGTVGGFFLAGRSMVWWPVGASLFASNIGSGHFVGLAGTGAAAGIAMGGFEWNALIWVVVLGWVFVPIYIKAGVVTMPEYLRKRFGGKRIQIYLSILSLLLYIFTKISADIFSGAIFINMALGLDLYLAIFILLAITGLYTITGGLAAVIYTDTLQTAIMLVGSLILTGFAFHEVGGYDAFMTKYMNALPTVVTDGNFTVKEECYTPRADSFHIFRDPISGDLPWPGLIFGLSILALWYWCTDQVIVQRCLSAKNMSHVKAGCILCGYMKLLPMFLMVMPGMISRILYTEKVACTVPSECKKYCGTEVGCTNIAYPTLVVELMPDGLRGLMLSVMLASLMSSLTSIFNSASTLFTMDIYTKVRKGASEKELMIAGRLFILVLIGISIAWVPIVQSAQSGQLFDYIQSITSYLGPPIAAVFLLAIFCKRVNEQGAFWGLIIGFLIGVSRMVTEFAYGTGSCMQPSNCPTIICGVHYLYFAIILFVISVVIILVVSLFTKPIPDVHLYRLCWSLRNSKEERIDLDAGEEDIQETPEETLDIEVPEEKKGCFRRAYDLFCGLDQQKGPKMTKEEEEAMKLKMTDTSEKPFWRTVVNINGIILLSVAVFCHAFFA
Source text: as §1, §2

[5] = target: T3, mouse SGLT2 (Mus musculus, UniProt Q923I7); assay: 14C-AMG uptake assay, HEK293 cells expressing mouse SGLT2; type: cell-based; conditions: mean ± SD
T3 construct: expressed in transfected cells; host or cells: HEK293 (per abstract)
T3 sequence (Q923I7 1-670): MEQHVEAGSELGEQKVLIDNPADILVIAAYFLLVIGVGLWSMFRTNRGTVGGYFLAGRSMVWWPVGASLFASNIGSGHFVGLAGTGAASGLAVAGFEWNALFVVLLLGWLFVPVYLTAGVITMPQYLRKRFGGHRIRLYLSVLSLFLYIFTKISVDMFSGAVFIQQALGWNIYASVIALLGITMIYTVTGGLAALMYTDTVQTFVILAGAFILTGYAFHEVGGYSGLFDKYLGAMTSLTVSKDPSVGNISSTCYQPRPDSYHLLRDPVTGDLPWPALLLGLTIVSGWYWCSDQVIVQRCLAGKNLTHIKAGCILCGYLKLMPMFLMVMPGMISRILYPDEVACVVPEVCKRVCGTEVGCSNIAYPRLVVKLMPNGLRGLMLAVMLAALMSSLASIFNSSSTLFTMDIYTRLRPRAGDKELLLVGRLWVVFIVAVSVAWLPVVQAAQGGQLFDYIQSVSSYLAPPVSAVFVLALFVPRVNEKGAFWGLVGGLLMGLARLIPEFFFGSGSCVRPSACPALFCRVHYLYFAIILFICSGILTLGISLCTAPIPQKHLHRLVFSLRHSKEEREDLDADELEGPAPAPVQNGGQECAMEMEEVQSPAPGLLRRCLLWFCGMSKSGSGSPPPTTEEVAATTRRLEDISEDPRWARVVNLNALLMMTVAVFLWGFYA
Source text: as §1, §2

Sequence of dog SGLT2 (Q5U9C9 entry or part of it): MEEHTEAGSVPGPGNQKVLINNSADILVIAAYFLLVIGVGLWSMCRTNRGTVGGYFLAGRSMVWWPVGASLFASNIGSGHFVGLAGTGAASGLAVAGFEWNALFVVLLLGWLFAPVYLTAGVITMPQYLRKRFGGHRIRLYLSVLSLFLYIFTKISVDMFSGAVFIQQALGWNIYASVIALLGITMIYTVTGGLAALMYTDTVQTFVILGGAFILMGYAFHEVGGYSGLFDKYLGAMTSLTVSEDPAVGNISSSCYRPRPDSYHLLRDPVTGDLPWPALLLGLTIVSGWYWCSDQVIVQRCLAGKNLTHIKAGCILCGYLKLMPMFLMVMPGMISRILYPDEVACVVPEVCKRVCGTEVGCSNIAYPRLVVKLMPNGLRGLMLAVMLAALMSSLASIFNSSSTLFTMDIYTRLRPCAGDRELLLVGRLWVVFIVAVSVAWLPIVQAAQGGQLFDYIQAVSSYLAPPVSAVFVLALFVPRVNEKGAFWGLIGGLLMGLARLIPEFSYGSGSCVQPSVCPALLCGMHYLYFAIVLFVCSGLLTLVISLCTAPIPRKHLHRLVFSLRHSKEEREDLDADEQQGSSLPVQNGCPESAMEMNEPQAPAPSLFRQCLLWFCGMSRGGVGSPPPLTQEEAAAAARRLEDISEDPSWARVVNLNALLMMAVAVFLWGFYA

COc1ccc(Cc2cc([C@@H]3O[C@H](SC)[C@@H](O)[C@H](O)[C@H]3O)ccc2Cl)cc1 [LP-925219]
IC50 ([1]; no wash protocol): 2.2 nM | IC50 ([1]; washout protocol, 18-20 h recovery after 30 min treatment): 6.8 nM | IC50 [2]: 1 ± 0.3 nM | IC50 [3]: 2.1 ± 0.5 nM | IC50 [4]: 30.2 ± 2 nM | IC50 [5]: 0.5 ± 0.1 nM
